Here are results for one compound from publication PMC11477289, “Low-Basicity 5-HT6 Receptor Ligands from the Group of Cyclic Arylguanidine Derivatives and Their Antiproliferative Activity Evaluation” (International Journal of Molecular Sciences, 2024).

SMILES strings stand for the structures.

One data set in a line: PAMPA permeability test. The class given is in vitro ADME. The method, then: This test allows the determination of the compound’s passive diffusion through biological membranes.
Precoated PAMPA Plate System Gentest was obtained from Corning (Tewksbury, MA, USA). Test compounds and caffeine solutions (200 µM) were prepared in a PBS buffer (pH = 7.4) and then added to the PAMPA plate. The plate was incubated at room temperature for 5 h without agitation. Then, 150 µL was aspirated from both acceptor (A) and donor (D) wells and then diluted with a 150 µL internal standard (IS) solution. The concentrations of the tested compounds in wells A and D were estimated using an LC/MS Waters ACQUITY™ TQD system with a TQ detector (Waters, Milford, CT, USA). The values of Pe were estimated according to the exact formulas provided by Corning and previously described in the literature.
4. Absorption – PAMPA permeability test
*Permeability coefficient. Compound is permeable if Pe≥1.5×10-6 cm/s
**CFN = caffeine, well-permeable control
UPLC of Caffeine solution in PBS (pH=7.4) after 5h of incubation: acceptor well
(above), donor well (below). IS – internal standard.
UPLC of PR 68 solution in PBS (pH=7.4) after 5h of incubation: acceptor well (above),
donor well (below). IS – internal standard. […]
For orientation: PAMPA measures passive passage across an artificial lipid membrane.

Another data set has as its target T1, CYP3A4 (Homo sapiens, UniProt P08684).
T1 construct: purchased Promega
Kind of data set: CYP3A4 P450-Glo assay (drug–drug interactions). In kind it is biochemical. The conditions noted are these: 0.01–25 µM. The method, then: The potential risk of drug–drug interactions (DDIs) was examined in luminescence-based CYP3A4 and CYP2D6 P450-Glo assays (Promega, Madison, WI, USA) (Figure 2A,B).
The influence on CYP3A4 and CYP2D6 activity by ligands was analyzed with luminescent CYP3A4 P450-Glo and CYP2D6 P450-Glo^TM (Madison, WI, USA). The compounds were tested in triplicate. The bioluminescence signal was measured with a microplate reader, Spark Cyto (Tecan, Männedorf, Switzerland), in the luminescence mode. Compounds were tested in triplicate in the range of 0.01–25 µM for both isoforms’ P450 cytochrome. KE and QD were used as the reference compounds for CYP3A4 and CYP2D6, respectively.

The target in a further data set is 5-HT5A receptor (Homo sapiens, UniProt P47898). Kind of data set: [3H]-LSD radioligand binding assay, 5-HT5A.
Another data set relates to HSA and AGP (24:1). Kind of data set: Plasma protein binding, TRANSIL XL PPB assay. To be noted: human, TRANSIL XL PPB assay: HSA and AGP in a 24:1 ratio.

T1 sequence (P08684 whole entry): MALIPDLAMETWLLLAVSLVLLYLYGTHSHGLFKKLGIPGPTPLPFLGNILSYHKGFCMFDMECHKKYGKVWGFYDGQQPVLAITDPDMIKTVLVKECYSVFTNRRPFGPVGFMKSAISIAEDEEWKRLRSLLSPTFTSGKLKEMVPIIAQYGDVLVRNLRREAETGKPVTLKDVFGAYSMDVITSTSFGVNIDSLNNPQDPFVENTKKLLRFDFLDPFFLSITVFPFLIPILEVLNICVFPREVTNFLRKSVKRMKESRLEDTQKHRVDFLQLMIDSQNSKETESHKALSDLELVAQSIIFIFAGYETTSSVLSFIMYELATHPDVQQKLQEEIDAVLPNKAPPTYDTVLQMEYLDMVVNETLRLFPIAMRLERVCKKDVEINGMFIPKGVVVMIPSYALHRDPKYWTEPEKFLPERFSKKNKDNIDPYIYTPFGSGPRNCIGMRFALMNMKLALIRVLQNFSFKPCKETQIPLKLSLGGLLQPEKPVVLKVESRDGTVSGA
Chain of 5-HT5A receptor (P47898 whole entry): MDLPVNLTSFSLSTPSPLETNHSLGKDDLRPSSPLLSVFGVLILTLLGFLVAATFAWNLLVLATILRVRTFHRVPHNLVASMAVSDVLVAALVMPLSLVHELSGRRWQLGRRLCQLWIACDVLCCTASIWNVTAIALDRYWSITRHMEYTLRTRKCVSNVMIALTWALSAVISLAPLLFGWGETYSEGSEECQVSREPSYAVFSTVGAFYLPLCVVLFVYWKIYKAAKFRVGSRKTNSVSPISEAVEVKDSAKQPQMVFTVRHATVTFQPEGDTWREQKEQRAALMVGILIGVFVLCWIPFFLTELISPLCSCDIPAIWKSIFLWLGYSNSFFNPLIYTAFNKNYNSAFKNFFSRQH

`CC1NC(NS(=O)(=O)c2cccc3ccccc23)=Nc2cccc(Cl)c21` (stereo not shown) [PR 68, N -(5-chloro-4-methyl-3,4-dihydroquinazolin-2-yl)naphthalene-1-sulfonamide]: the “membrane retention R” value in the data set “PAMPA permeability test” (PAMPA) was 0.65. The Papp at 5 h, 200 µM in “PAMPA permeability test” (PAMPA, PBS pH 7.4, 5 h, room temperature, read-out: PAMPA Pe) stood at 1.72 ×10⁻⁶ cm/s. Further, the “PAMPA Pe” value in “PAMPA permeability test” (PBS pH 7.4, 5 h, room temperature) is 1.72 10^−6 cm/s. Also, the “drug–drug interactions, CYP3A4 activity” value at CYP3A4 was “should not exhibit drug–drug interactions”. In addition, the inhibitory constant (Ki) at 5-HT5A receptor is 1110 nM. Also, in the data set on HSA and AGP (24:1), the equilibrium dissociation constant (Kd) at 12 min, 20 µM was found to be 1400 nM and the fraction unbound at 12 min, 20 µM is 0.002.

Broadly, the Ki is the equilibrium dissociation constant of an inhibitor or competing ligand from its target. As usually defined, the Kd is a measure of binding affinity in units of concentration. As usually defined, the fraction unbound is free concentration divided by total concentration.
